This is an account of results in patent US12377098B2, “Compositions and methods for the treatment of alopecia” (Follea International, priority 2023, dated 2025).

The test system of this test is scalp SULT1A1 enzyme. The conditions noted are these: oral, 20 subjects.

In the case of `O=C([O-])O.[Na+]` [sodium bicarbonate], the “subjects in whom the scalp SULT1A1 enzyme was induced” value (dosages exceeding 1,000 mg q.d.) was 18%. Also, the “induction of the scalp SULT1A1 enzyme” value (dosages less than 500 mg q.d.) is given as “did induce”.
